14 compounds from BindingDB's records for doi:10.1016/s0960-894x(99)00301-7 (Nankai University, 1999) can be followed below.

The target in the test is T1, Acetolactate synthase, chloroplastic (Arabidopsis thaliana, UniProt P17597).
T1 sequence (P17597 whole entry): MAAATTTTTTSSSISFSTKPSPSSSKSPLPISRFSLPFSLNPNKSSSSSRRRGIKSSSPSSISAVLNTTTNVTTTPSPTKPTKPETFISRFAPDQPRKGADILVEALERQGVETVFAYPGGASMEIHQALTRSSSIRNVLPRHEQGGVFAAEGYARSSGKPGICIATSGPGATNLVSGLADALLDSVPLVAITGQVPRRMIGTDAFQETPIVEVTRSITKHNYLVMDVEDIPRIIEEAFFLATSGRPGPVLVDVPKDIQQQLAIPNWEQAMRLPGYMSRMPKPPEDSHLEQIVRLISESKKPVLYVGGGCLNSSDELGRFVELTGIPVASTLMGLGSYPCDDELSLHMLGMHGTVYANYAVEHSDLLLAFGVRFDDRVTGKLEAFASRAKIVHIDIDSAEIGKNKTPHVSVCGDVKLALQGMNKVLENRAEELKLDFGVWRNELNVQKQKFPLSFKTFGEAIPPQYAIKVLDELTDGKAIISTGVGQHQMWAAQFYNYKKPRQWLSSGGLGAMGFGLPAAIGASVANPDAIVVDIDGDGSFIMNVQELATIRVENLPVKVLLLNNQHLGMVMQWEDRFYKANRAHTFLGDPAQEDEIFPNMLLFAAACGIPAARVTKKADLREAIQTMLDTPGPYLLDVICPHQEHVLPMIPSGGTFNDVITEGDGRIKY
Kind of test: ChEBML_27494. The source says: Inhibitory activity against Acetolactate synthase (ALS) enzyme by using the rape-root growth method

For the compound `O=C(OCn1ccc(=O)[nH]c1=O)c1ccc(F)cc1`, the IC50 (usually the midpoint of a concentration-inhibition curve) is 212 µM.

Regarding `Cc1cccc(C(=O)OCn2ccc(=O)[nH]c2=O)c1`, the IC50 turned out to be 62 µM.

Regarding `COc1ccc(C(=O)OCn2ccc(=O)[nH]c2=O)cc1`, the IC50 was greater than 362 µM.

`Cc1ccc(NS(=O)(=O)c2ccc(F)cc2)nc1` [4-Fluoro-N-(5-methyl-pyridin-2-yl)-benzenesulfonamide]: the IC50 is 152 µM.

For `O=C(OCn1ccc(=O)[nH]c1=O)c1ccc([N+](=O)[O-])cc1`, the IC50 was greater than 344 µM.

As for `Cc1ccnc(NS(=O)(=O)c2ccccc2[N+](=O)[O-])n1` [N-(4-Methyl-pyrimidin-2-yl)-2-nitro-benzenesulfonamide], the IC50 was 287 µM.

In turn, `Cc1cnc(NS(=O)(=O)c2cc(Cl)ccc2Cl)s1` [2,5-Dichloro-N-(5-methyl-thiazol-2-yl)-benzenesulfonamide] displayed an IC50 greater than 309 µM.

On to `O=C(OCn1ccc(=O)[nH]c1=O)c1ccc(Br)cc1`, for which half-maximal inhibition (IC50) required 169 µM.

As for `O=C(OCn1ccc(=O)[nH]c1=O)c1ccc(I)cc1`, the IC50 was greater than 269 µM.

In the case of `O=C(OCn1ccc(=O)[nH]c1=O)c1c(Cl)cc(C(F)(F)F)cc1Cl`, the IC50 was greater than 261 µM.

In turn, `COc1ccccc1C(=O)OCn1ccc(=O)[nH]c1=O` had an IC50 greater than 362 µM.

`O=C(OCn1ccc(=O)[nH]c1=O)c1ccccc1` registered a concentration for half-maximal inhibition (IC50) of 208 µM.

In turn, `COc1cc(Cl)nc(NS(=O)(=O)c2ccc(F)cc2)n1` [N-(4-Chloro-6-methoxy-pyrimidin-2-yl)-4-fluoro-benzenesulfonamide] displayed an IC50 of 111 µM.

In turn, `O=C(OCn1ccc(=O)[nH]c1=O)c1ccc(Cl)cc1` registered an IC50 of 182 µM.
